Target: T1, motilin receptors located on the colon of mature rabbits (Oryctolagus cuniculus, UniProt G1T803)
T1 construct: The muscle tissues were homogenized in 10 volumes of buffer; from tissue; host or cells: colon smooth muscle of mature New Zealand rabbits, crude membrane homogenate
Assay: Competition with radiolabeled motilin (porcine) for motilin receptors of rabbit colon membranes
Format: binding
Conditions: @100 nM, I125 motilin (porcine)
Procedure: A compound of the invention was tested for its ability to compete with radiolabeled motilin (porcine) for the motilin receptors located on the colon of mature rabbits. The colon from mature New Zealand rabbits was removed, dissected free from the mucosa and serosa layers, and diced into small pieces. The muscle tissues were homogenized in 10 volumes of buffer (50 mM Tris-Cl 10 MM MgCl2, 0.1 mg/mL bactracin, and 0.25 mM Peflabloc, pH 7.5) in a Polytron (29,000 rpm, 4×15 seconds). The homogenate was centrifuged at 1000×g for 15 min. and the supernatant discarded. The pellet was washed twice before being suspended in homogenizing buffer. This crude homogenate was then passed first through a 19 gauge needle then a 23 gauge needle to further suspend the material and stored at −80° C. […] The pellet was counted in the gamma counter to determine the percentage of […] motilin and thereby the percent inhibition of the test compound.
% Inhibition was Determined by Standard Techniques

T1 sequence (G1T803 1-400): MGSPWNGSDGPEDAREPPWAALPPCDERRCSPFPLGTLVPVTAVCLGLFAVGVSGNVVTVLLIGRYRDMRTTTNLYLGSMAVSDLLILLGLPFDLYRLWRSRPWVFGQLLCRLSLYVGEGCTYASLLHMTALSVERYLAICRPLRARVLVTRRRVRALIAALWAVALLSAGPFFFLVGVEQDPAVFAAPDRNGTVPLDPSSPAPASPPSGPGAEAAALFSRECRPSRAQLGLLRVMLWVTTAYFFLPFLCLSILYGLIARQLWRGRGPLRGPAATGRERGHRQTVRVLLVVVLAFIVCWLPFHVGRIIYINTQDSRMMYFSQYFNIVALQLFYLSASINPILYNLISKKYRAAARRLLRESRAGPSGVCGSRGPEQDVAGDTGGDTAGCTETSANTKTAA

% Inhibition: 17%
SMILES: O=C(Nc1nncs1)N(CC1=CC(Cc2ccccc2)(NC(=O)C(Cl)(Cl)Cl)CC1)c1cccc(OCCN2CCOCC2)c1 (stereo not shown) [Example 2, 3-Benzyl-3-trichloroacetylamino—N-[(3-(2-morpholinoethoxy)phenyl)-N-[(1,3,4-thiadiazol-2-yl)aminocarbonyl)amino]methylcyclopentene]
